From PubChem BioAssay (NCI)
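Grown in 96-well plates, cells were treated for 48 hours with each compound at five concentrations. Insufficient inhibition: endpoint recorded as highest concentration tested. GI50 = concentration required for 50% inhibition of growth. TGI marks complete inhibition of growth.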

What follows are compounds tested on MDA-MB-468 breast (assay: NCI tumour cell line growth inhibition, 48 h).

Structure (SMILES)	GI50 [µM]	TGI [µM]
COc1cc2c(c(OC)c1OC)-c1ccc(NN(C(=O)c3ccccc3)C(=O)c3ccccc3)c(=O)cc1[C@@H](NC(C)=O)CC2 (tested in a mixture with another compound)	2.08	6.71
CC(C)=CCc1cc2c(cc1O)C1=C(C(=O)C3=C(C1=O)S(=O)(=O)CCN3)C(C=C(C)C)O2 (stereo unspecified)	0.54	2.59
COc1ccc2nc3cc(Cl)ccc3c(NCCCNCCO)c2c1	0.454	1.89
COc1cc2cc(Oc3ccc(NC(=O)Nc4cc(C(F)(F)F)cc(C(F)(F)F)c4)cc3)c(C)nc2cc1OCCN1CCOCC1	1.22	3.76
NCCN1CCN(c2nc(-c3ccccc3)nc3nc(-c4ccccc4)oc23)CC1	1.63	3.2
COc1cnc2c(c1)C(=O)c1c-2n(CCCNC2=NCCS2)c(=O)c2cc(F)ccc12	0.19	2.02
COc1ccc2c(c1)OC(N)=C(C#N)C2c1cc(OC)c(OC)c(OC)c1 (stereo unspecified)	0.0239	0.0688
c1ccc(-c2oc(-c3ccccc3)c(CN3CCCCC3)c2CN2CCCCC2)cc1	1.45	3.98
N#CCn1c(=O)c(Oc2ccc(F)cc2F)cc2cnc(NC3CCOCC3)nc21	> 18.9	> 25
CC(C)(C)c1cc(C(=O)Nc2ccccc2C(=O)NCCN)cc(C(C)(C)C)c1	2.01	3.59
Fc1ccc(-c2cc3nc(C(Cl)Cl)nc(-c4ccc(Cl)cc4)n3n2)cc1	1.73	4.12
CN(C)c1ccc(/C=C\c2ccnc3ccccc23)cc1	0.233	0.564
CCCCN(CCCC)C(=O)[C@H](CC)[C@@H]1CC[C@@H](C)[C@@H]([C@H](C)[C@@H](O)[C@@H](C)C(=O)[C@H](CC)C2O[C@]3(C=C[C@@H](O)[C@]4(CC[C@@](C)([C@H]5CC[C@](O)(CC)[C@H](C)O5)O4)O3)[C@H](C)C[C@@H]2C)O1 (stereo partly specified)	1.47	3.89
O=C1Nc2ccc(Br)cc2C12CC(c1ccccc1)=NN2 (stereo unspecified)	3.04	41.8
c1cc(N[C@@H]2CCNC2)nc(-c2cnc3ccc(-c4cn[nH]c4)cn23)c1	0.957	2.52
CC(=O)Nc1ccc(C(=O)CCl)cc1	1.81	4.52
CN=C(N)c1ccc(N=C(N)c2ccc(-c3ccc(C(N)=Nc4ccc(C(N)=NC)cc4)cc3)cc2)cc1	74.4	> 100
O=C1CC(c2c[nH]c3ccc(F)cc23)C(=O)N1 (stereo unspecified)	> 100	> 100
CO[C@H]1C[C@@H]2CC[C@@H](C)[C@@](O)(O2)C(=O)C(=O)N2CCCC[C@H]2C(=O)O[C@H]([C@H](C)C[C@@H]2CC[C@@H](OC(=O)C(C)(CO)CO)[C@H](OC)C2)CC(=O)[C@H](C)/C=C(\C)[C@@H](O)[C@@H](OC)C(=O)[C@H](C)C[C@H](C)\C=C/C=C/C=C/1C	0.00189	> 10
COc1cc(/C=C/C(=O)c2cccc(-n3cc(-c4cc(OC)c(OC)c(OC)c4)[nH]c3=O)c2)cc(OC)c1OC	1.57	3.25
COc1ccc(-c2cc(-c3ccc(Nc4nc(Nc5ccccc5)nc(Nc5ccc(Cl)cc5)n4)cc3)nc(N)n2)cc1	10.2	34.2
O=C(Nc1ccc(Oc2ccc3nc(NC(=O)c4ccco4)[nH]c3c2)cc1)Nc1cc(C(F)(F)F)ccc1F	1.37	11.5
O=C1Nc2ccc(Cl)cc2/C1=C\c1c(-c2ccc(Cl)cc2)nc2sc(C3CC3)nn12	6.68	21.2

Structure (SMILES)	GI50 [µM]	TGI [µM]
COc1cc(-c2cc(/C=C/C(=O)c3ccc(F)c(F)c3)[nH]n2)cc(OC)c1OC	2.27	9.47
C#Cc1cccc(Nc2ncnc3cc(NC(=O)CCl)ccc23)c1	0.716	3.16
CSC1=NC(=Nc2c(C)cccc2C)C2(CCC(C(C)(C)C)CC2)N1c1ccc(Cl)cc1 (stereo unspecified)	4.83	> 100
COc1ccc(C(O)c2cc3c(N)c(C(=O)Nc4ccc(Cl)cc4)sc3nc2C)cc1 (stereo unspecified)	1.94	8.87
COc1cc2c(c(OC)c1OC)-c1ccc(SC)c(=O)cc1[C@@H](N)CC2	0.0786	> 100
NS(=O)(=O)c1ccc(Nc2cc(-c3ccc(O)c(F)c3)[nH]n2)cc1	10.5	> 25
COc1cc(CNCCCCCCN2C(=O)c3cccc4cccc(c34)C2=O)ccc1O	2.78	9.33
COc1cc(/C=C2\C(=O)N(Cc3ccc(Cl)cc3)c3ccccc32)cc(OC)c1OC	2.66	8.06
CCOC(=O)[C@@H](C)C[C@H](Cc1ccccc1)NC(=O)c1csc([C@@H](C[C@H](C(C)C)N(C)C(=O)[C@@H](NC(=O)[C@H]2CCCCN2C)C(C)(C)CC)OC(C)=O)n1	< 0.00167	–
O=C1NC(=NCc2ccccc2Cl)S/C1=C\c1ccc2ncccc2c1	3.61	> 25
O=C1/C(=C/c2ccc(Cl)c(Cl)c2)CN(C(=O)C(Cl)Cl)C/C1=C\c1ccc(Cl)c(Cl)c1	0.177	0.398
O=C1NC(=NCCc2ccc(F)cc2)S/C1=C\c1ccc2ncccc2c1	> 20.9	> 25
Clc1nccc2c(-c3csc(-c4c[nH]c5ccc(Br)cc45)n3)c[nH]c12	1.18	3.81
COC1(CC[C@@H](C)COC2OC(CO)C(O)C(O)C2O)O[C@H]2C[C@H]3[C@@H]4CC=C5C[C@@H](OC6OC(CO)C(OC7OC(C)C(O)C(O)C7O)C(O)C6OC6OC(C)C(O)C(O)C6O)CC[C@]5(C)[C@H]4CC[C@]3(C)[C@H]2[C@@H]1C (stereo partly specified)	1.38	3.01
O=C(Nc1ccc(Oc2ccc(F)cc2)cc1)[C@@H]1C[C@@H](Cc2ccc(F)cc2)CN1C(=O)Cn1ccnn1	4.5	29
C=C1C(=O)O[C@H]2[C@H]1CC/C(COC(=O)c1cc(OC)c(OC)c(OC)c1)=C\CC[C@@]1(C)O[C@@H]21	0.344	2.02
CC1CC2C3CCC4=CC(=O)C=CC4(C)C3(F)C(O)CC2(C)C1(O)C(=O)COP(=O)(O)O (stereo unspecified)	> 500	> 500
COc1cc2oc(-c3cccc(C(=O)Nc4ccc(Cl)cc4)c3)cc(=O)c2c(OC)c1OC	3.64	85.7
Oc1ccc(Cl)cc1C(c1cc(Cl)ccc1O)C(Cl)(Cl)Cl	2.58	8.11
O=C1NC(=S)S/C1=C\c1cn(-c2ccccc2)nc1-c1ccccc1	6.83	39.9
CN1CCN(CC(=O)N(C)c2ccc(N=C(c3ccccc3)c3c(O)[nH]c4ccc(C#N)cc34)cc2)CC1	10.7	24.1
CCOCC1(COCC)CCC(c2[nH]ncc2CN(C)CCNC)CC1	46.6	> 100
CCN1CCN(c2nc(C)cc(N(CCCNc3ccnc4cc(Cl)ccc34)Cc3ccc4c(c3)OCO4)n2)CC1	1.92	4.93
